Legend:
[1] = target: Ribosomal protein S6 kinase alpha-1 (Homo sapiens) (UniProt Q15418); assay: Inhibition of RSK1 Domain 2 K2 labeling site in human Huh-7 cells at 10 uM by KiNativ Profiling analysis relative to control; format: cell-based
[2] = target: T1, Eukaryotic translation initiation factor 2-alpha kinase 3 (Homo sapiens) (UniProt Q9NZJ5); assay: Inhibition of PEK Lys2 labeling site in human Huh-7 cells at 1 uM by KiNativ Profiling analysis relative to control; format: cell-based
T1 sequence (whole entry): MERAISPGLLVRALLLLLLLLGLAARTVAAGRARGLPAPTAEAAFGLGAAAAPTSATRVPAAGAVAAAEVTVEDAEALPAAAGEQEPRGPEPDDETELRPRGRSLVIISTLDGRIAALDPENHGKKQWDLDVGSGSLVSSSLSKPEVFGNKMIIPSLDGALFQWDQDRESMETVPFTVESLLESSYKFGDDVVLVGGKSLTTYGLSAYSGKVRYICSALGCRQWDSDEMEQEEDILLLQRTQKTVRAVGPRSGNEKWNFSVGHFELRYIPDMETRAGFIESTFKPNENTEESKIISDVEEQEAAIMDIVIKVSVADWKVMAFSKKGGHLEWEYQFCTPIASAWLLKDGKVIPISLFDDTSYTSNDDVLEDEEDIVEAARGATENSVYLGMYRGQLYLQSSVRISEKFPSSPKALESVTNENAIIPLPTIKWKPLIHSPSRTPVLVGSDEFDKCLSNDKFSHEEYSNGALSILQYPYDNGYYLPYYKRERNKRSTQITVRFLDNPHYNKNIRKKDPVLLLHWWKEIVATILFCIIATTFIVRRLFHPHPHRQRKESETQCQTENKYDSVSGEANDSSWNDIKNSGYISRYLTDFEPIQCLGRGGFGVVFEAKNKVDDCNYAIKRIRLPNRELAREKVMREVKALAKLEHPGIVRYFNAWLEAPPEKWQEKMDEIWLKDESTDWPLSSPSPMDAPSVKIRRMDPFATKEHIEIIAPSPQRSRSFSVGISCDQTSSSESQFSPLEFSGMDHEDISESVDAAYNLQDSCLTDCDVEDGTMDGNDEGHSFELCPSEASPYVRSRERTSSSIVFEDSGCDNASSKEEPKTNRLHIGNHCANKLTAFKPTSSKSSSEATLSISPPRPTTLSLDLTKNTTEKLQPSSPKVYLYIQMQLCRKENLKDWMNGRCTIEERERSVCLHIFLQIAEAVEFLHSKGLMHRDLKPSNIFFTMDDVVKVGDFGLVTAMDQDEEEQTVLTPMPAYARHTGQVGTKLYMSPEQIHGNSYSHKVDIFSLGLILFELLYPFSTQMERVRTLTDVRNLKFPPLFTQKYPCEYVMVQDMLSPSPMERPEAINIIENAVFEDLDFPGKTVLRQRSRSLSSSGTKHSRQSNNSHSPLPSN

[3] = target: T2, Phosphatidylinositol 5-phosphate 4-kinase type-2 gamma (Homo sapiens) (UniProt Q8TBX8); assay: Inhibition of PIP4K2C ATP labeling site harbouring VKELPTLKDMDFLNK in human Huh-7 cell lysate at 1 uM by KiNativ Profiling analysis relative to control; format: subcellular
T2 sequence (whole entry): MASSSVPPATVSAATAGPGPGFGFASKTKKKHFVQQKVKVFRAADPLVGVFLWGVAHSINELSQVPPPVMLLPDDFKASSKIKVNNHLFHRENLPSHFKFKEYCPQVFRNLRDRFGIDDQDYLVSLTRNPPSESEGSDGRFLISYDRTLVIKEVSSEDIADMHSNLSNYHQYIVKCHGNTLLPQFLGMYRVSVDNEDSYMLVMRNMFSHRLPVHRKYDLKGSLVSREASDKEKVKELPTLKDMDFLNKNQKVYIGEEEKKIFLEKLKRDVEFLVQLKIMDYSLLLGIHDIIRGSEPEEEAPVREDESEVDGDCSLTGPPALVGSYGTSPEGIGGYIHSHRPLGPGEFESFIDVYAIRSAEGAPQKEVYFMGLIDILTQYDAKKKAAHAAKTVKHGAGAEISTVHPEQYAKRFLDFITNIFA

[4] = target: T3, Serine/threonine-protein kinase TAO1 (Homo sapiens) (UniProt Q7L7X3); assay: Inhibition of TAO1 Lys2 labeling site in human Huh-7 cells at 1 uM by KiNativ Profiling analysis relative to control; format: cell-based
T3 sequence (whole entry): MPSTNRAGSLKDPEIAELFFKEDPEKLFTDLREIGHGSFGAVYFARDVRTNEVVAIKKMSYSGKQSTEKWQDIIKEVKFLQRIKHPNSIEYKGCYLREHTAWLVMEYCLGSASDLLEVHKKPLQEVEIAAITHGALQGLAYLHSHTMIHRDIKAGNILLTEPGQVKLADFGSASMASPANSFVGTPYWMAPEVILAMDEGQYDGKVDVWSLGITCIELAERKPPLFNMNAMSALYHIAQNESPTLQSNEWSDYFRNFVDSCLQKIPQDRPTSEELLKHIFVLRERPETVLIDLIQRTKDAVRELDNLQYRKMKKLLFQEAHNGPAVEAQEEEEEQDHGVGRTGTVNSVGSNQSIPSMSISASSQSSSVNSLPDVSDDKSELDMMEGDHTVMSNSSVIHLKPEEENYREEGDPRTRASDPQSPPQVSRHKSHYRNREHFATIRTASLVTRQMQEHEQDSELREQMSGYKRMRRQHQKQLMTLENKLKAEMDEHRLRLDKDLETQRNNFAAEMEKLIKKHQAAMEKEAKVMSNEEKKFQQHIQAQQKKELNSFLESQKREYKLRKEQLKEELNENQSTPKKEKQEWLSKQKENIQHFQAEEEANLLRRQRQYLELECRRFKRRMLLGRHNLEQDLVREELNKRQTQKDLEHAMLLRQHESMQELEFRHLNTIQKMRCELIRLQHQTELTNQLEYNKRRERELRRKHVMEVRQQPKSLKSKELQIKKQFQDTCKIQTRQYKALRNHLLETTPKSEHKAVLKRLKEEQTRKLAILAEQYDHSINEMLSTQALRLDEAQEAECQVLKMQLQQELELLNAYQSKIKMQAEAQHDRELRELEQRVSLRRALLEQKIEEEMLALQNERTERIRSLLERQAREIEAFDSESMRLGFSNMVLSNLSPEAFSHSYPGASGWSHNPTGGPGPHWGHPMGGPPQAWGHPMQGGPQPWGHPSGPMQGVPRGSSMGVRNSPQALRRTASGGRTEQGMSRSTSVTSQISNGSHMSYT

[5] = target: Protein-tyrosine kinase 6 (Homo sapiens) (UniProt Q13882); assay: Inhibition of BRK (unknown origin) at 1 uM by Ambit Kinomescan binding assay relative to control; values are per cent of control
[6] = target: AP2-associated protein kinase 1 (Homo sapiens) (UniProt Q2M2I8); assay: Inhibition of AAK1 (unknown origin) at 1 uM by Ambit Kinomescan binding assay relative to control
[7] = target: Ephrin type-A receptor 8 (Homo sapiens) (UniProt P29322); assay: Inhibition of EPHA8 (unknown origin) at 1 uM by Ambit Kinomescan binding assay relative to control; values are per cent of control
Sequence of Ephrin type-A receptor 8 (Homo sapiens) (P29322 whole entry): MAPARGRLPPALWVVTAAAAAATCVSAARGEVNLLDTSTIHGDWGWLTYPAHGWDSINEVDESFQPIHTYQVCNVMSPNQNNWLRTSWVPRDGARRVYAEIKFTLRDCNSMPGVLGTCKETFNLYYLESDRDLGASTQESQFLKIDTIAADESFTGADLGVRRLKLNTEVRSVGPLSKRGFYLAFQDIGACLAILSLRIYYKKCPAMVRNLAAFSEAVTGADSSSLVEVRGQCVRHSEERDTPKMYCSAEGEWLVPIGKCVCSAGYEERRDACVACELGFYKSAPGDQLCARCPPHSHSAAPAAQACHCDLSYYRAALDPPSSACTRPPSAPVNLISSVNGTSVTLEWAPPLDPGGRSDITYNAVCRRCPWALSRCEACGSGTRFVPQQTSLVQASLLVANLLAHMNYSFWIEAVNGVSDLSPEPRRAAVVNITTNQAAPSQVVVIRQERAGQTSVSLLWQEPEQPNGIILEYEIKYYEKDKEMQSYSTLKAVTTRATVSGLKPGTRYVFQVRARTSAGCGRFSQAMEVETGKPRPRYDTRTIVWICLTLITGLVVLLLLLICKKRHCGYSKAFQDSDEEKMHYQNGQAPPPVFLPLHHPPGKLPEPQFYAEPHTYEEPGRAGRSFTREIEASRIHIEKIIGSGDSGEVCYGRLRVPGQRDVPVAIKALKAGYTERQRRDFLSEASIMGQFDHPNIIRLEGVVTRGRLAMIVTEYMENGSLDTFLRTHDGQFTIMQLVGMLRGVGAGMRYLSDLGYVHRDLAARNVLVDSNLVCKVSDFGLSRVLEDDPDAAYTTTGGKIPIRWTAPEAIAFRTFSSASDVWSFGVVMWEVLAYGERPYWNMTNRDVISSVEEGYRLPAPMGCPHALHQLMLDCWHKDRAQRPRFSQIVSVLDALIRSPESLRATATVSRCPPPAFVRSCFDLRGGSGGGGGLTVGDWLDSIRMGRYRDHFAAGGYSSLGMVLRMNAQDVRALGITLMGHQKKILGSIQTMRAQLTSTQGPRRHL

Sequence of Protein-tyrosine kinase 6 (Homo sapiens) (Q13882 whole entry, looked up): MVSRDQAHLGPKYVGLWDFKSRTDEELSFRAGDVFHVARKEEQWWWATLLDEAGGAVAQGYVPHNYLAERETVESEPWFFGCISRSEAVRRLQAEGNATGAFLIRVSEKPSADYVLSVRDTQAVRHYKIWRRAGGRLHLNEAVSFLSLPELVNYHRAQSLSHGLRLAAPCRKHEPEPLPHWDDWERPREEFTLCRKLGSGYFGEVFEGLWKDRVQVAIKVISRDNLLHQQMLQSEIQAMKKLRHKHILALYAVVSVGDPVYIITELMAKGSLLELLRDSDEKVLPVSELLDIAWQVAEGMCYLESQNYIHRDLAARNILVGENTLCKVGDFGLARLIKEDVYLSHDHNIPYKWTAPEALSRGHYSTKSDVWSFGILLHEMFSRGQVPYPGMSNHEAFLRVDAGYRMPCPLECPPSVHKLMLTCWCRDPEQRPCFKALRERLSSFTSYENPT
Sequence of AP2-associated protein kinase 1 (Homo sapiens) (Q2M2I8 whole entry, looked up): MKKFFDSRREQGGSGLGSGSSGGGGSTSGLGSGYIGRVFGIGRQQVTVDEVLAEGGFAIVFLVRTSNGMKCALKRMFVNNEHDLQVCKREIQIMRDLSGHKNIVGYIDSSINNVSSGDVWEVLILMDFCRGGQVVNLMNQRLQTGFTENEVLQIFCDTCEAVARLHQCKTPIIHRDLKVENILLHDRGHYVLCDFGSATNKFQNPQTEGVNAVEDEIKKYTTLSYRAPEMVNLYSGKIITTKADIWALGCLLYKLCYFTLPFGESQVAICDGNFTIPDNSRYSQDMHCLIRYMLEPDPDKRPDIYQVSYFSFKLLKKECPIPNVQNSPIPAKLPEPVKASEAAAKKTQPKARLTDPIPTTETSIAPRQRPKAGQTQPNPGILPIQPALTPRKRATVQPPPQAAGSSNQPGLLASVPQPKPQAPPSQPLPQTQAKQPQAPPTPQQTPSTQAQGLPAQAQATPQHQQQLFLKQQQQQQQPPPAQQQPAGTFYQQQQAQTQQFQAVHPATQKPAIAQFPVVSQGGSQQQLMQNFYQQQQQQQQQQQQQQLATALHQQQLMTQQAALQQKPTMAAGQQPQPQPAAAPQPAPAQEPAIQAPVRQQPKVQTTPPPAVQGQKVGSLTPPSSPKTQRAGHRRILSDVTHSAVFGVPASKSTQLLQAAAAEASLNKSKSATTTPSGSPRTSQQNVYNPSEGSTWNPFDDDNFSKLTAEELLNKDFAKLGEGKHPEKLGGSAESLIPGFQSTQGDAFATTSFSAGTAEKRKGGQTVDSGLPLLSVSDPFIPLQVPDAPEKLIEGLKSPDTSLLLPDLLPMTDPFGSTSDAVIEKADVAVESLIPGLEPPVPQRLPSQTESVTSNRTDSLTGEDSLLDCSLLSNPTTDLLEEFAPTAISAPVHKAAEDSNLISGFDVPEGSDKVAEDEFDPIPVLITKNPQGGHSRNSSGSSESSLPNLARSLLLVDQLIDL
Sequence of Ribosomal protein S6 kinase alpha-1 (Homo sapiens) (Q15418 whole entry, the tested form may be a part): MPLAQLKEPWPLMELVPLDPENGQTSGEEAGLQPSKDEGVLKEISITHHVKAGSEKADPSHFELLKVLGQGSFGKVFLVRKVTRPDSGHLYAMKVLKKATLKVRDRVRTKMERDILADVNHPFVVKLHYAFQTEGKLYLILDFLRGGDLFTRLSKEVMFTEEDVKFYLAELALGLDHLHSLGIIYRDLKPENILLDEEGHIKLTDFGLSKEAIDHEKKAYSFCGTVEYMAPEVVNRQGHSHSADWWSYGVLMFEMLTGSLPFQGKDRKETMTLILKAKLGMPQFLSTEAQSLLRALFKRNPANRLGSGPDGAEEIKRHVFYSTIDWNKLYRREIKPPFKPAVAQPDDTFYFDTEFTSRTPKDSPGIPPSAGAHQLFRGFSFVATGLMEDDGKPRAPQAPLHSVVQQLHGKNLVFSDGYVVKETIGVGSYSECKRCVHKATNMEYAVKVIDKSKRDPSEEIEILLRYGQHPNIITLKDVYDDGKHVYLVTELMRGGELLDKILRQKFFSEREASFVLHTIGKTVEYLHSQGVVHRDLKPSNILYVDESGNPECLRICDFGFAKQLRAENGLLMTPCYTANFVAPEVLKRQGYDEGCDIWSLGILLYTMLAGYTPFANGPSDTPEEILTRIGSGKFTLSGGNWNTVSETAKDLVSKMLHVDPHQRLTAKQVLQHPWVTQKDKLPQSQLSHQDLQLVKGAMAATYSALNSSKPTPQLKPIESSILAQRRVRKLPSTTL

CCN1CCN(Cc2ccc(NC(=O)c3ccc(C)c(Oc4ccnc5[nH]ccc45)c3)cc2C(F)(F)F)CC1
inhibition [1]: 8%

CNc1cc(Oc2cc(C(=O)Nc3cc(N4CCN(C)CC4)cc(C(F)(F)F)c3)ccc2C)ncn1
inhibition [2]: 16.8% | inhibition [3]: 11.6% | inhibition [4]: 0.4%

CCN1CCN(Cc2ccc(NC(=O)c3ccc(C)c(/C=C/c4cnc5[nH]ccc5c4OC)c3)cc2C(F)(F)F)CC1
residual activity [5]: 64% | inhibition [6]: 67% | residual activity [7]: 0.35%
